The values that follow come from ChEMBL document CHEMBL5149986, “Spliceostatins and Derivatives: Chemical Syntheses and Biological Properties of Potent Splicing Inhibitors” (J Nat Prod, 2021).

Data set [1] can be described thus: Cytotoxicity against human Jurkat-TAg cells assessed as cell growth inhibition measured after 48 hrs. The class given is functional, cell-based.
The test system of another data set is HeLa. The experiment in a line: Potency index, ratio of test compound IC50 to Spliceostatin A IC50 for inhibition of pre-mRNA splicing in human HeLa nuclear extract in presence of ATP.
A short description of data set [2]: Inhibition of pre-mRNA splicing in human HeLa nuclear extract in presence of ATP. In kind it is cell-free.
Another data set relates to HCT-116/VM46. The data set can be described thus: Cytotoxicity against human HCT116/VM46 cells assessed as inhibition in cell growth. In kind it is functional, cell-based.
For another data set, the system named is HCT-116. The experiment in a line: Cytotoxicity against human HCT-116 cells assessed as inhibition in cell growth. In kind it is functional, cell-based.
For the next data set, the system named is L1210. The data set can be described thus: Cytotoxicity against mouse L1210 cells assessed as inhibition in cell growth. In kind it is functional, cell-based.
A short description of data set [3]: Cytotoxicity against HEK293T cells assessed as inhibition in cell growth. The following applies: human. In kind it is toxicity, cell-based, HEK-293T.
A further data set has as its system MES-SA. The experiment in a line: Cytotoxicity against human MES-SA cells assessed as inhibition in cell growth. In kind it is functional, cell-based.
A further data set relates to MES-SA/Dx5. The data set can be described thus: Cytotoxicity against human MES-SA/Dx5 cells assessed as inhibition in cell growth. In kind it is functional, cell-based.
The test system of a further data set is MCF7. The experiment in a line: Cytotoxicity against human MCF7 cells incubated for 7 to 10 days by MTS assay. In kind it is functional. As to conditions: time 7-10 day.

Take `CC(=O)O[C@@H](C)/C=C\C(=O)N[C@@H]1C[C@H](C)[C@H](C/C=C(C)/C=C/[C@H]2O[C@](C)(O)CC3(CC3)[C@@H]2O)O[C@@H]1C`: the half-maximal inhibitory concentration (IC50) in data set [1] was above 4000 nM.
Turning to `CC(=O)O[C@@H](C)/C=C\C(=O)N[C@@H]1C[C@H](C)[C@H](C/C=C(C)/C=C/[C@H]2OC3(CC3)C[C@@]3(CO3)[C@@H]2O)O[C@@H]1C`, the Ratio IC50 in the data set on HeLa came out at 2. Besides, the IC50 in data set [2] came out at 20 nM.
As to `CO[C@]1(C)C[C@@]2(CO2)[C@H](O)[C@@H](/C=C/C(C)=C/C[C@@H]2O[C@H](C)[C@@H](NC(=O)/C=C\[C@H](C)OC(C)=O)C[C@@H]2C)O1`, the IC50 in [2] is 1000 nM.
As for `CO[C@]1(C)C[C@]2(CO2)[C@@H](O)[C@@H](/C=C/C(C)=C/C[C@@H]2O[C@H](C)[C@H](NC(=O)/C=C\[C@H](C)OC(C)=O)C[C@@H]2C)O1`, in data set [2], the concentration for half-maximal inhibition (IC50) was 1500 nM.
For `CC(/C=C/[C@H]1OC(C)(C)C[C@@]2(CO2)[C@@H]1O)=C\C[C@@H]1O[C@H](C)[C@H](NC(=O)/C=C\[C@H](C)OC(=O)N2CCCCC2)C[C@@H]1C`, the IC50 with HCT-116/VM46 is 0.59 nM; in the data set on HCT-116, 0.68 nM; in the data set on L1210 it was 0.6 nM.
Turning to `CC(=O)O[C@@H](C)/C=C\C(=O)N[C@H]1C[C@H](C)[C@H](C/C=C(C)/C=C/[C@H]2O[C@](C)(O)C[C@]3(CO3)[C@H]2O)O[C@@H]1C`, the IC50 in data set [2] worked out at 20000 nM.
`CC(=O)O[C@@H](C)/C=C\C(=O)N[C@H]1C[C@H](C)[C@H](C/C=C(C)/C=C/[C@H]2O[C@](C)(O)C[C@@]3(CO3)[C@@H]2O)O[C@@H]1C`: in data set [2], the IC50 stood at 1000 nM.
Take `COC(=O)C[C@@H]1C[C@@]2(CO2)[C@H](O)[C@@H](/C=C/C(C)=C/C[C@@H]2O[C@H](C)[C@H](NC(=O)/C=C\[C@H](C)OC(C)=O)C[C@@H]2C)O1`: the IC50 in data set [3] was 0.36 nM; with MES-SA, 0.32 nM; in the data set on MES-SA/Dx5 it was 3.6 nM; in data set [2], 400 nM.
Turning to `CC(=O)O[C@@H](C)/C=C\C(=O)N[C@@H]1C[C@H](C)[C@H](C/C=C(C)/C=C/[C@H]2OC(C)(C)C[C@@]3(CO3)[C@@H]2O)O[C@@H]1C`, the figures for the IC50 in the data set with HCT-116/VM46, in the data set on HCT-116 and in the data set with L1210 were 0.51 nM, 0.56 nM and 0.44 nM, respectively. In the data set on MCF7, this compound displayed a GI50 of 0.0102 nM.
On to `CC(=O)O[C@@H](C)/C=C\C(=O)N[C@@H]1C[C@H](C)[C@H](C/C=C(C)/C=C/[C@H]2O[C@](C)(O)C[C@]3(CO3)[C@H]2O)O[C@@H]1C`, for which the IC50 in data set [2] turned out to be 35000 nM.
Take `CO[C@]1(C)C[C@@]2(CO2)[C@H](O)[C@@H](/C=C/C(C)=C/C[C@@H]2O[C@H](C)[C@H](NC(=O)/C=C\[C@H](C)OC(C)=O)C[C@@H]2C)O1`: in [2], the IC50 came to 10 nM.
`CC(=O)N[C@@H]1C[C@H](C)[C@H](C/C=C(C)/C=C/[C@H]2O[C@](C)(O)C[C@@]3(CO3)[C@@H]2O)O[C@@H]1C`: the IC50 in data set [1] came out at 1700 nM.
As to `CC(/C=C/[C@H]1O[C@H](C)C[C@@]2(CO2)[C@@H]1O)=C\C[C@@H]1O[C@H](C)[C@H](NC(=O)/C=C\[C@H](C)OC(=O)N(C)C)C[C@@H]1C`, the IC50 in data set [3] is 0.003 nM; with MES-SA, 0.04 nM; in the data set with MES-SA/Dx5, 0.14 nM.
Regarding `COC(=O)C[C@@H]1C[C@@]2(CO2)[C@H](O)[C@@H](/C=C/C(C)=C/C[C@@H]2O[C@H](C)[C@H](NC(=O)/C=C\[C@H](C)NC(=O)C(C)C)C[C@@H]2C)O1`, the results for the IC50 (in data set [3]; with MES-SA; with MES-SA/Dx5) were 0.058 nM, 6.16 nM and 384 nM, respectively.
For the compound `CC(/C=C/[C@H]1OC(C)(C)C[C@@]2(CO2)[C@@H]1O)=C\C[C@@H]1O[C@H](C)[C@H](NC(=O)/C=C\[C@H](C)O)C[C@@H]1C`, the values for the IC50 in the data set on HCT-116/VM46, in the data set on HCT-116 and with L1210 were 7.4 nM, 9.7 nM and 0.54 nM, respectively.
On to `CC(=O)O[C@@H](C)/C=C\C(=O)N[C@@H]1C[C@H](C)[C@H](C/C=C(C)/C=C/[C@H]2O[C@](C)(O)C[C@@]3(CO3)[C@@H]2O)O[C@@H]1C`, for which the IC50 in [1] came out at 2 nM; in data set [2], 50 nM. Also, it took 1.1 nM to inhibit growth with MCF7 by half (GI50).
In the case of `CC(=O)O[C@@H](C)/C=C\C(=O)N[C@@H]1C[C@H](C)[C@H](C/C=C(C)/C=C/[C@H]2O[C@@H](C)C[C@@]3(CO3)[C@@H]2O)O[C@@H]1C`, in [1], the IC50 turned out to be 1.6 nM.
On to `CC(/C=C/[C@H]1OC(C)(C)C[C@@]2(CO2)[C@@H]1O)=C\C[C@@H]1O[C@H](C)[C@H](NC(=O)/C=C\[C@H](C)OC(=O)N2CCOCC2)C[C@@H]1C`, for which the results for the IC50 in the data set with HCT-116/VM46, with HCT-116 and in the data set on L1210 were 0.55 nM, 0.49 nM and 7.8 nM, respectively.
For `CC(/C=C/[C@H]1OC(C)(C)C[C@@]2(CO2)[C@@H]1O)=C\C[C@@H]1O[C@H](C)[C@H](NC(=O)/C=C\[C@H](C)OC(=O)N2CCSCC2)C[C@@H]1C`, in that order: 0.52 nM, 0.48 nM and 0.51 nM.
